# Measured values reported in US8574563B2 (Bristol-Myers Squibb Company, priority 2006, dated 2013).
# System: HCV 1b-377-neo replicon cells
# Assay: HCV replicon assay, HCV 1b-377-neo replicon cells (1b FRET)
# Format: cell-based, Hepatitis C virus genotype 1b
# Settings: HCV 1b-377-neo replicon cells; HCV 1b genotype; read-out: EC50 range against HCV 1b (Table 2, Range)
# Method: An HCV Replion assay was utilized in the present disclosure, and was prepared, conducted and validated as described in commonly owned PCT/US2006/022197 and in O'Boyle et. al. Antimicrob Agents Chemother. 2005 April; 49(4):1346-53.
# HCV 1b-377-neo replicon cells were used to test the currently described compound series as well as cells resistant to compound A due to a Y2065H mutation in NS5A (described in application PCT/US2006/022197). The compounds tested were determined to have more than 10-fold less inhibitory activity on cells resistant to compound A than wild-type cells indicating a related mechanism of action between the two compound series. Thus, the compounds of the present disclosure can be effective to inhibit the function of the HCV NS5A protein and are understood to be as effective in combinations as previously described in application PCT/US2006/022197 and commonly owned WO/04014852. Further, the compounds of the present disclosure can be effective against the HCV 1b genotype. It should also be understood that the compounds of the present disclosure can inhibit multiple genotypes of HCV. […] In one embodiment compounds of the present disclosure are active against the 1a, 1b, 2a, 2b, 3a, 4a, and 5a genotypes.
row,Structure (SMILES),EC50 [nM]
1,COC(=O)N[C@@H](C(=O)N1CCC[C@H]1c1ncc(-c2ccc(-c3ccc(-c4cnc([C@@H]5CCCN5C(=O)[C@H](NC(=O)OC)c5ccccc5)[nH]4)cc3C)nc2)[nH]1)c1ccccc1 [Example 138],0.001 to 0.999
2,COC(=O)N[C@@H](C(=O)N1CCC[C@H]1c1ncc(-c2ccc(-c3ccc(-c4cnc([C@@H]5CCCN5C(=O)[C@H]5CCC(=O)N5)[nH]4)cc3)cc2)[nH]1)c1ccccc1 [Example 84-3],0.001 to 0.999

# Same assay, conditions: Hepatitis C virus, HCV 1b-377-neo replicon cells; HCV 1b genotype; read-out: EC50 range against HCV 1b (Table 2, Range)
row,Structure (SMILES),EC50 [nM]
1,"COC(=O)N[C@@H](C(=O)N1CCC[C@H]1c1ncc(-c2ccc(-c3ccc(-c4cnc([C@@H]5CCCN5C(=O)Cc5ccccc5)[nH]4)cc3)cc2)[nH]1)c1ccccc1 [Example 28, methyl ((1R)-2-oxo-1-phenyl-2-((2S)-2-(5-(4′-(2-((2S)-1-(phenylacetyl)-2-pyrrolidinyl)-1H-imidazol-5-yl)-4-biphenylyl)-1H-imidazol-2-yl)-1-pyrrolidinyl)ethyl)carbamate]",1 to 99
2,"COC(=O)N[C@H](C(=O)N1CCC[C@H]1c1ncc(-c2ccc(-c3ccc(-c4cnc([C@@H]5CCCN5C(=O)[C@@H](NC5=NCCN5C)C(C)C)[nH]4)cc3)cc2)[nH]1)C(C)C [cj-11d, methyl ((1S)-2-methyl-1-(((2S)-2-(5-(4′-(2-((2S)-1-(N-(1-methyl-4,5-dihydro-1H-imidazol-2-yl)-L-valyl)-2-pyrrolidinyl)-1H-imidazol-5-yl)-4-biphenylyl)-1H-imidazol-2-yl)-1-pyrrolidinyl)carbonyl)propyl)carbamate]",0.001 to 0.999
3,"COC(=O)N[C@@H](C(=O)N1CCC[C@H]1c1ncc(-c2ccc(-c3ncc(-c4cnc([C@@H]5CCCN5C(=O)Cc5cccnc5)[nH]4)cn3)cc2)[nH]1)c1ccccc1 [Example 152j-3, methyl ((1R)-2-oxo-1-phenyl-2-((2S)-2-(5-(4-(5-(2-((2S)-1-(3-pyridinylacetyl)-2-pyrrolidinyl)-1H-imidazol-5-yl)-2-pyrimidinyl)phenyl)-1H-imidazol-2-yl)-1-pyrrolidinyl)ethyl)carbamate]",0.001 to 0.999
4,"CN(C)[C@@H](C(=O)N1CCC[C@H]1c1ncc(-c2ccc(-c3ccc(-c4cnc([C@@H]5CCCN5C(=O)c5cccc(C(=O)c6ccccc6)c5)[nH]4)cc3)cc2)[nH]1)c1ccccc1 [Example 94-32, (3-(((2S)-2-(5-(4′-(2-((2S)-1-((2R)-2-(dimethylamino)-2-phenylacetyl)-2-pyrrolidinyl)-1H-imidazol-5-yl)-4-biphenylyl)-1H-imidazol-2-yl)-1-pyrrolidinyl)carbonyl)phenyl)(phenyl)methanone]",1 to 99
5,"COC(=O)N[C@@H](C(=O)N1CCC[C@H]1c1ncc(-c2ccc(-c3ccc(-c4cnc([C@@H]5CCCN5C(=O)Cc5cccc(Cl)c5)[nH]4)cc3)cc2)[nH]1)c1ccccc1 [Example 84-67, methyl ((1R)-2-((2S)-2-(5-(4′-(2-((2S)-1-((3-chlorophenyl)acetyl)-2-pyrrolidinyl)-1H-imidazol-5-yl)-4-biphenylyl)-1H-imidazol-2-yl)-1-pyrrolidinyl)-2-oxo-1-phenylethyl)carbamate]",0.001 to 0.999
6,"COC(=O)N[C@@H](C)C(=O)N1CCC[C@H]1c1nc(C(=O)OCc2ccccc2)c(-c2ccc(-c3ccc(-c4cnc([C@@H]5CCCN5C(=O)[C@@H](C)NC(=O)OC)[nH]4)cc3)cc2)[nH]1 [Example J24, benzyl 2-((2S)-l-(N-(methoxycarbonyl)-L-alanyl)-2-pyrrolidinyl)-5-(4-(2-((2S)-l-(N-(methoxycarbonyl)-L-alanyl)-2-pyrrolidinyl)-1H-imidazol-5-yl)-4-biphenylyl)-1H-imidazole-4-carboxylate]",0.001 to 0.999
7,"CN(C)[C@@H](C(=O)N1CCC[C@H]1c1ncc(-c2ccc(-c3ccc(-c4cnc([C@@H]5CCCN5C(=O)[C@@H](c5ccccc5)N5CCCC5)[nH]4)cc3)cc2)[nH]1)c1ccccc1 [Example 90, (1R)-N,N-dimethyl-2-oxo-1-phenyl-2-((2S)-2-(5-(4′-(2-((2S)-1-((2R)-2-phenyl-2-(1-pyrrolidinyl)acetyl)-2-pyrrolidinyl)-1H-imidazol-5-yl)-4-biphenylyl)-1H-imidazol-2-yl)-1-pyrrolidinyl)ethanamine]",0.001 to 0.999
8,"CC(C)CC(=O)N1[C@@H](C)CC[C@H]1c1nc(-c2ccc(-c3ccc(-c4c[nH]c([C@@H]5CC[C@H](C)N5C(=O)CC(C)C)n4)cc3)cc2)c[nH]1 [Example M158, 4,4′-(4,4′-biphenyldiyl)bis(2-((2S,5S)-5-methyl-1-(3-methylbutanoyl)-2-pyrrolidinyl)-1H-imidazole)]",1 to 99
9,"COC(=O)N[C@@H](C(=O)N1CCC[C@H]1c1ncc(-c2ccc(-c3ccc(-c4cnc([C@@H]5CCCN5C(=O)C[C@@H]5CCCN5C(=O)OC(C)(C)C)[nH]4)cc3)cc2)[nH]1)c1ccccc1 [Example 84-18, tert-butyl (2S)-2-(2-((2S)-2-(5-(4′-(2-((2S)-1-((2R)-2-((methoxycarbonyl)amino)-2-phenylacetyl)-2-pyrrolidinyl)-1H-imidazol-5-yl)-4-biphenylyl)-1H-imidazol-2-yl)-1-pyrrolidinyl)-2-oxoethyl)-1-pyrrolidinecarboxylate]",1 to 99
10,"COC(=O)N[C@@H](C)C(=O)N1CCC[C@H]1c1ncc(-c2ccc(-c3ccc(-c4cnc([C@@H]5CCCN5C(=O)[C@@H](c5ccccc5)N(C)C)[nH]4)cc3)cc2)[nH]1 [Example 92, methyl ((1S)-2-((2S)-2-(5-(4′-(2-((2S)-1-((2R)-2-(dimethylamino)-2-phenylacetyl)-2-pyrrolidinyl)-1H-imidazol-5-yl)-4-biphenylyl)-1H-imidazol-2-yl)-1-pyrrolidinyl)-1-methyl-2-oxoethyl)carbamate]",0.001 to 0.999
11,"COC(=O)N[C@H](C(=O)N1CCC[C@H]1c1ncc(-c2ccc(-c3ccc(-c4[nH]c([C@@H]5CCCN5C(=O)[C@@H](NC(=O)OC)[C@@H](C)OC)nc4C(F)(F)F)cc3)cc2)[nH]1)[C@@H](C)OC [Example J42, methyl ((1S,2R)-2-methoxy-1-(((2S)-2-(5-(4′-(2-((2S)-1-(N-(methoxycarbonyl)-O-methyl-L-threonyl)-2-pyrrolidinyl)-4-(trifluoromethyl)-1H-imidazol-5-yl)-4-biphenylyl)-1H-imidazol-2-yl)-1-pyrrolidinyl)carbonyl)propyl)carbamate]",0.001 to 0.999
12,"CC[C@H](NC(=O)OC)C(=O)N1CCC[C@H]1c1ncc(-c2ccc(-c3ccc(-c4cnc([C@@H]5CCCN5C(=O)[C@@H](c5ccccc5)N(CC)CC)[nH]4)cc3)cc2)[nH]1 [Example M55, methyl ((1S)-1-(((2S)-2-(5-(4′-(2-((2S)-1-((2R)-2-(diethylamino)-2-phenylacetyl)-2-pyrrolidinyl)-1H-imidazol-5-yl)-4-biphenylyl)-1H-imidazol-2-yl)-1-pyrrolidinyl)carbonyl)propyl)carbamate]",1 to 99
13,"CN(C)[C@@H](C(=O)N1CCC[C@H]1c1ncc(-c2ccc(-c3ccc(-c4cnc([C@@H]5CCCN5C(=O)c5cccc(N6CCCC6)c5)[nH]4)cc3)cc2)[nH]1)c1ccccc1 [Example 94-27, (1R)-N,N-dimethyl-2-oxo-1-phenyl-2-((2S)-2-(5-(4′-(2-((2S)-1-(3-(1-pyrrolidinyl)benzoyl)-2-pyrrolidinyl)-1H-imidazol-5-yl)-4-biphenylyl)-1H-imidazol-2-yl)-1-pyrrolidinyl)ethanamine]",1 to 99
